Tests used:
ECHCG (barnyardgrass) = experiment: Pre-emergence herbicidal activity, warm season; assay type: in vivo, Echinochloa crus-galli; conditions: GR80 = lowest tested rate (300, 100, 30, 10 g/ha) with 80% or greater inhibition; approx. 14 days after treating; 30/21° C.
In short: (§1)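 Seeds sown in sterilised fertilised topsoil received surface-applied compound in 50:50 acetone/water, typically at 300, 100, 30 and 10 g/ha, then greenhouse-grown at 30/21° C (warm-season species) or 18/13° C (cool-season species). Percent inhibition versus untreated plants was scored at about 14 days, giving GR80; an asterisk marks activity short of 80% at the top rate.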

[1] = test system: PANMI (wild proso millet); experiment: Pre-emergence herbicidal activity, warm season; assay type: in vivo, Panicum miliaceum; conditions: GR80 = lowest tested rate (300, 100, 30, 10 g/ha) with 80% or greater inhibition; approx. 14 days after treating; 30/21° C.
In short: (§2)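 Herbicidal efficacy was judged visually as percent inhibition compared with untreated plants some 14 days after treatment, giving GR80 over doses of 10 to 300 g/ha. Proso millet and crabgrass grew at 30/21 °C; blackgrass and wild buckwheat grew at 18/13 °C.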

SORVU (shattercane) = experiment: Pre-emergence herbicidal activity, warm season; assay type: in vivo, Sorghum vulgare; conditions: GR80 = lowest tested rate (300, 100, 30, 10 g/ha) with 80% or greater inhibition; approx. 14 days after treating; 30/21° C.
In short: as §1

[2] = test system: BRAPP (broadleaf signalgrass); experiment: Pre-emergence herbicidal activity, warm season; assay type: in vivo, Brachiaria platyphylla; conditions: GR80 = lowest tested rate (300, 100, 30, 10 g/ha) with 80% or greater inhibition; approx. 14 days after treating; 30/21° C.
In short: as §1

[3] = test system: GALAP (catchweed bedstraw); experiment: Pre-emergence herbicidal activity, cool season; assay type: in vivo, Galium aparine; conditions: lowest tested rate with 80% or greater inhibition; rates 300, 100, 30, 10 g/ha; about 14 days
In short: as §1

POLCO (wild buckwheat) = experiment: Pre-emergence herbicidal activity, cool season; assay type: in vivo, Polygonum convolvulus; conditions: lowest tested rate with 80% or greater inhibition; rates 300, 100, 30, 10 g/ha; about 14 days
In short: as §2

SINAR (wild mustard) = experiment: Pre-emergence herbicidal activity, cool season; assay type: in vivo, Sinapis arvensis; conditions: lowest tested rate with 80% or greater inhibition; rates 300, 100, 30, 10 g/ha; about 14 days
In short: as §1

[4] = test system: VERPE (creeping speedwell); experiment: Pre-emergence herbicidal activity, cool season; assay type: in vivo, Veronica persicaria; conditions: lowest tested rate with 80% or greater inhibition; rates 300, 100, 30, 10 g/ha; about 14 days
In short: as §1

SASKR (russian thistle) = experiment: Pre-emergence herbicidal activity, cool season; assay type: in vivo, Salsola kali; conditions: lowest tested rate with 80% or greater inhibition; rates 300, 100, 30, 10 g/ha; about 14 days
In short: as §1

STEME (common chickweed) = experiment: Pre-emergence herbicidal activity, cool season; assay type: in vivo, Stellaria media; conditions: lowest tested rate with 80% or greater inhibition; rates 300, 100, 30, 10 g/ha; about 14 days
In short: as §1

[5] = test system: LAMPU (purple deadnettle); experiment: Pre-emergence herbicidal activity, cool season; assay type: in vivo, Lamium purpureum; conditions: lowest tested rate with 80% or greater inhibition; rates 300, 100, 30, 10 g/ha; about 14 days
In short: as §1

[6] = test system: AGSST (creeping bentgrass); experiment: Pre-emergence herbicidal activity, cool season; assay type: in vivo, Agrostis stolonifera; conditions: GR80 = lowest tested rate (300, 100, 30, 10 g/ha) with 80% or greater inhibition; approx. 14 days after treating; 18/13° C.
In short: as §1

[7] = test system: GALAP (catchweed bedstraw); experiment: Post-emergence herbicidal activity, cool season; assay type: in vivo, Galium aparine; conditions: abraded plants sprayed; GR80 = lowest tested rate (300, 100, 30, 10 g/ha) with 80% or greater inhibition; approx. 14 days after treatment; 18/13° C.
Method: (§3) In another set of tests, the post-emergence activity of compounds of this invention was evaluated on the cool season species listed above. The following procedure was used.
(§4) A pre-prepared topsoil mixture (described above) was placed in a pot and compacted to a depth of 1.0 to 1.25 cm from the top of the pot. Seeds of each of several monocotyledonous and dicotyledonous annual plant species were placed on top of the soil. The seeds were covered with a mixture of 50% topsoil and 50% Rediearth™ in sufficient quantity to level-fill the pots. The pots were then placed on a greenhouse bench and subirrigated as needed.
When plants growing from the seeds had emerged and reached a suitable growth stage for post-emergence treatment, typically 9 to 14 days after planting, above-ground parts of the plants were subjected to a pre-treatment involving abrasion to create greater opportunity for foliar uptake of subsequently applied compounds. Abrasion was performed using garnet 200w particles applied with a Sears Craftsman hand-held sandblaster operated at approximately 850 kPa (50 psig) pressure. […]
After treatment the plants were placed in a greenhouse with an 18/13° C. day/night temperature regime and were subsequently watered as needed for growth. Approximately 14 days after treatment, the plants were observed and herbicidal efficacy recorded as percent inhibition by comparison with control plants. […]

ALOMY (blackgrass) = experiment: Post-emergence herbicidal activity, cool season; assay type: in vivo, Alopecurus myosuroides; conditions: abraded plants sprayed at 300, 100, 30 and 10 g/ha; about 14 days after treatment
Method: as §3, §4
(§5) When plants growing from the seeds had emerged and reached a suitable growth stage for post-emergence treatment, typically 9 to 14 days after planting, above-ground parts of the plants were subjected to a pre-treatment involving abrasion to create greater opportunity for foliar uptake of subsequently applied compounds. Abrasion was performed using garnet 200w particles applied with a Sears Craftsman hand-held sandblaster operated at approximately 850 kPa (50 psig) pressure.
(§6) A known amount of each test compound dissolved or suspended in an appropriate organic solvent was diluted with a 50:50 mix of acetone and water and applied to the plants by spraying with a standard spray nozzle in a spray volume of […] at a spray pressure of 511 kPa (30 psig). Only the compounds of Examples 1, 8-15 and 17-22 were included in post-emergence tests. Application rates for these compounds were 300, 100, 30 and 10 g/ha. Control plants were abraded but not sprayed.
(§7) After treatment the plants were placed in a greenhouse with an 18/13° C. day/night temperature regime and were subsequently watered as needed for growth. Approximately 14 days after treatment, the plants were observed and herbicidal efficacy recorded as percent inhibition by comparison with control plants. GR80 values were assigned for each compound as described above for the pre-emergence tests.

SETVI (green foxtail) = experiment: Post-emergence herbicidal activity, cool season; assay type: in vivo, Setaria viridis; conditions: abraded plants sprayed at 300, 100, 30 and 10 g/ha; about 14 days after treatment
Method: as §3, §4, §5, §6, §7

LOLMG (annual ryegrass) = experiment: Post-emergence herbicidal activity, cool season; assay type: in vivo, Lolium multiflorum; conditions: abraded plants sprayed at 300, 100, 30 and 10 g/ha; about 14 days after treatment
Method: as §3, §4, §5, §6, §7

BROTE (downy brome) = experiment: Post-emergence herbicidal activity, cool season; assay type: in vivo, Bromus tectorum; conditions: abraded plants sprayed at 300, 100, 30 and 10 g/ha; about 14 days after treatment
Method: as §3, §4, §5, §6, §7

AVEFA (wild oat) = experiment: Post-emergence herbicidal activity, cool season; assay type: in vivo, Avena fatua; conditions: abraded plants sprayed at 300, 100, 30 and 10 g/ha; about 14 days after treatment
Method: as §3, §4, §5, §6, §7

[8] = test system: AEGCY (jointed goatgrass); experiment: Post-emergence herbicidal activity, cool season; assay type: in vivo, Aegilops cylindrica; conditions: abraded plants sprayed at 300, 100, 30 and 10 g/ha; about 14 days after treatment
Method: as §3, §4, §5, §6, §7

[9] = test system: AGSST (creeping bentgrass); experiment: Post-emergence herbicidal activity, cool season; assay type: in vivo, Agrostis stolonifera; conditions: abraded plants sprayed at 300, 100, 30 and 10 g/ha; about 14 days after treatment
Method: as §3, §4, §5, §6, §7

[10] = test system: AGRRE (quackgrass (seedling)); experiment: Post-emergence herbicidal activity, cool season; assay type: in vivo, Elymus repens; conditions: abraded plants sprayed at 300, 100, 30 and 10 g/ha; about 14 days after treatment
Method: as §3, §4, §5, §6, §7

Structure (SMILES): CCN(CC)C(=O)n1cnc(S(=O)(=O)C(F)(F)SCCO)n1 [Example 12, 1-(N,N-diethylcarbamoyl)-3-[(2-hydroxyethylthio)difluoromethylsulfonyl]-1,2,4-triazole]
- Pre-emergence activity (GR80) ECHCG (ECHCG (barnyardgrass)): * (activity observed, at least at highest rate, but <80% inhibition)
- Pre-emergence activity (GR80) PANMI [1]: * (activity observed, at least at highest rate, but <80% inhibition)
- Pre-emergence activity (GR80) SORVU (SORVU (shattercane)): * (activity observed, at least at highest rate, but <80% inhibition)
- Pre-emergence activity (GR80) BRAPP [2]: * (activity observed, at least at highest rate, but <80% inhibition)
- Pre-emergence activity GR80, GALAP [3]: [empty]
- Pre-emergence activity GR80, POLCO (POLCO (wild buckwheat)): [empty]
- Pre-emergence activity GR80, SINAR (SINAR (wild mustard)): [empty]
- Pre-emergence activity GR80, VERPE [4]: [empty]
- Pre-emergence activity GR80, SASKR (SASKR (russian thistle)): [empty]
- Pre-emergence activity GR80, STEME (STEME (common chickweed)): 300 g/ha
- Pre-emergence activity GR80, LAMPU [5]: 300 g/ha
- Pre-emergence activity (GR80) AGSST [6]: 300 g/ha
- Post-emergence activity (GR80) GALAP [7]: 300 g/ha
- Post-emergence activity GR80, ALOMY (ALOMY (blackgrass)): [empty]
- Post-emergence activity GR80, SETVI (SETVI (green foxtail)): [empty]
- Post-emergence activity GR80, LOLMG (LOLMG (annual ryegrass)): [empty]
- Post-emergence activity GR80, BROTE (BROTE (downy brome)): [empty]
- Post-emergence activity GR80, AVEFA (AVEFA (wild oat)): [empty]
- Post-emergence activity GR80, AEGCY [8]: [empty]
- Post-emergence activity GR80, AGSST [9]: [empty]
- Post-emergence activity GR80, AGRRE [10]: [empty]

— patent US6461997B1, “Triazole sulfones having herbicidal activity” (Monsanto Technology LLC, priority 1999, dated 2002)
